Assay results reported in paper PMC3082897 (2010).
Read-outs that look alike come from different tables or passages of the source.

Assays:
[1] = target: T1, UMPKmt (uridine monophosphate kinase, Rv2883c) (Mycobacterium tuberculosis, UniProt P9WHK5); assay: coupled spectrophotometric kinase assay; assay type: biochemical
Target sequence in this assay (P9WHK5 whole entry, looked up): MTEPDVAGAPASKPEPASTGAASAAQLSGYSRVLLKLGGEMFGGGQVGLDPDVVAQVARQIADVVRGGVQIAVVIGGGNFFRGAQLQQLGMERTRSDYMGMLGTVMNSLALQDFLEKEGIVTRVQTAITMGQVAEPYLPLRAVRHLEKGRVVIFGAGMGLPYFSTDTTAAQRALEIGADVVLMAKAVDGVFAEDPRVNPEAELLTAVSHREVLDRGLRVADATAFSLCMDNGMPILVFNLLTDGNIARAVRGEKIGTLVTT

[2] = target: T1, UMPKmt (uridine monophosphate kinase, Rv2883c); assay: X-ray crystal structure; assay type: biochemical
Target sequence in this assay (P9WHK5 whole entry): as the sequence (P9WHK5 whole entry, looked up) above

[3] = target: T1, UMPKmt (uridine monophosphate kinase, Rv2883c); assay: coupled spectrophotometric kinase assay; assay type: biochemical; remark: listed apart in the source
Target sequence in this assay (P9WHK5 whole entry, looked up): as above

[4] = target: T1, UMPKmt (uridine monophosphate kinase, Rv2883c); assay: coupled spectrophotometric kinase assay; assay type: biochemical; remark: listed apart in the source
Target sequence in this assay (P9WHK5 whole entry, looked up): as above

[5] = test system: O=c1ccn([C@@H]2O[C@H](COP(=O)(O)O)[C@@H](O)[C@H]2O)c(=O)[nH]1; assay: purified protein

Molecule	IC50 [1] [µM]	further results
O=c1[nH]c(=O)n([C@@H]2O[C@H](COP(=O)(O)OP(=O)(O)OP(=O)(O)O)[C@@H](O)[C@H]2O)cc1Br [5Br-UTP]	100	
O=c1[nH]c(=O)n([C@@H]2O[C@H](COP(=O)(O)OP(=O)(O)OP(=O)(O)O)[C@@H](O)[C@H]2O)cc1I [5I-UTP]	20	
Nc1nc2c(ncn2[C@@H]2O[C@H](COP(=O)(O)OP(=O)(O)OP(=O)(O)O)[C@@H](O)[C@H]2O)c(=O)[nH]1 [GTP]		EC50 [2]: 100 µM
O=c1ccn([C@@H]2O[C@H](COP(=O)(O)OP(=O)(O)OP(=O)(O)O)[C@@H](O)[C@H]2O)c(=O)[nH]1 [UTP]		IC50 [3]: 100 µM
Nc1nc2c(ncn2[C@H]2C[C@H](O)[C@@H](COP(=O)(O)OP(=O)(O)OP(=O)(O)O)O2)c(=O)[nH]1 [dGTP]		coupled spectrophotometric kinase assay (activation, similar to GTP) [4]: dGTP, Mant-GTP and 6-methylthio GTP exhibited similar properties to GTP in terms of both affinity and extent of activation
Cc1cn([C@H]2C[C@H](O)[C@@H](COP(=O)(O)OP(=O)(O)OP(=O)(O)O)O2)c(=O)[nH]c1=O [dTTP]	400	
O=c1ccn([C@H]2C[C@H](O)[C@@H](COP(=O)(O)OP(=O)(O)OP(=O)(O)O)O2)c(=O)[nH]1 [dUTP]	240	
UMPKmt (uridine monophosphate kinase, Rv2883c) (Mycobacterium tuberculosis H37Rv)		Km [5]: 19.6 ± 1.8 µM
